Non-standard residues stand in square brackets, D forms with d. Residues, ends and D or L forms follow the SMILES beside them. *: point of attachment. Nle = CCCC[C@H](N)C(=O)O; Cbz = O=C(OCc1ccccc1)*

From patent US20100266503A1, “Breast Cancer Methods, Medicaments and Agents” (priority 2007, published 2010) come the findings set out here.

Holding throughout (type): cell-based
Experiment [1] relates to Gamma Secretase Activity in breast cancer cell lines. As to the kind of experiment: Gamma-Secretase Activity Assay (R&D Systems kit) upon GSI1 treatment. The conditions noted are these: 750 nM, 2 uM, 5 uM; 24 and 48 hours. On the procedure:
1.5×10^6 cells were plated out and allowed to adhere overnight. The next day, cells were treated with increasing concentrations of GSI1 (750 nM, 2 uM, 5 uM) for 24 and 48 hours. We used the R&D Systems Gamma Secretase Activity Kit (as previously reported- ref from R&D Spec sheet) to determine Gamma Secretase Activity in breast cancer cell lines. Cells were washed twice with ice-cold PBS and all following steps, according to manufacturer's protocol were performed at 4 degrees. Briefly, cells were harvested in the Cell Extraction buffer, and incubated on ice for at least 10 minutes, to allow for maximal Buffer activity. Lysates were centrifuged at 10,000×g for 1 minute. Supernatants were collected with a total protein yield between 0.5-1 mg/ml. Pierce BCA Protein Assay was used to determine protein concentration in each sample. 200 microg of was used and incubated with the gamma-secretase fluorogenic substrate for 2 hours at 37° C. Fluorescence was measured at 355/460 nm.

Experiment [2] relates to MDA-MB-231, T47D and MCF-7 cells. As to the kind of experiment: Annexin V staining / full cell cycle analysis by FACS after GSI1. As for the experimental part: We next did Annexin V staining which is a marker of apoptosis. Cells were treated with GSI1 for 0, 7, 24 and 48 hours. After trypsinizing, the cells were washed with PBS 5 times and then treated with RNAase (100 μg/ml) for 20 mins then propidium iodide was added at 50 μg/ml per 1×10^7 cells, and incubated overnight at 4° C. The samples were then filtered through a 70 μm mesh and run on a FACS with the following settings: Forward scatter 113, side scatter 356 and PE setting 380. Although there was an increase in staining indicating apoptosis, this was only approximately 10%. For example, in MDA-MB-231 cells there was a 5% increase in Annexin V staining after 7 hours of treatment and in T47D and MCF-7 cells there was an 8% increase in Annexin V staining. We have repeated these experiments with full cell cycle analysis at 7, 24 and 48 h post treatment and again detect apoptosis but […]. […] Nevertheless it is likely that cell proliferation is inhibited via another mechanism as opposed to the induction of cellular death.

Experiment [3] has as its system GS components, Notch 1, Actin and Lamin A/C in a single breast cancer cell line. As to the kind of experiment: Western blot of protein levels after GSI1. The conditions noted are these: 750 nM GSI1 vs DMSO control. As for the experimental part: Western blot analysis of GS components, Notch 1, Actin and Lamin A/C in response to DMSO control (1) or 750 nm GSI1 (2). Tubulin was used as a loading control.
FIG. 10 illustrates the effect of GSI1 on the protein levels of the GS components and of Notch 1, Actin and Lamin A/C in a single breast cancer cell line. Shown, are Western blots of the proteins in reponse to treatment with GSI1 (750 nM) or DMSO control. All antibodies were from Abcam unless otherwise stated. Notch1 (Mouse) 1:500, Nicastrin rabbit 1:500, Pen-2 rabbit 1:1000, Presenilin, Goat 1:200, APH-1A Rabbit, 1:500, APH-1B Rabbit, 1:1000, Actin Mouse, 1:20,000(Santa Cruz), Tubulin, Mouse, 1:1000 (Sigma), Lamin NC 1:5000 (Santa Cruz). Secondary Antibodies used were goat anti mouse horseradish peroxidase (Sigma) 1:5000, goat anti-rabbit horseradish peroxidase (Sigma 1:10000) and donkey anti-goat horseradish peroxidase (Sigma 1:5000). Although GSI1 had some effects on protein expression these were marginal apart from Notch 1.
Background: A western blot detects proteins with antibodies after separation by electrophoresis.

Experiment [4] concerns MCF-10A cells. As to the kind of experiment: SRB proliferation of GSI1 on normal cell line MCF-10A. As for the experimental part:
Graphs illustrating the effects of GSI1, at different concentrations, on proliferation in four normal cell lines: (A) MCF-10A cells, (B) MCF-10A, (C) L226U19 cells and (D) L226TS4 cells.
The effect of GSI1 on proliferation in normal cell lines was investigated as, illustrated in FIG. 8. […] Therefore we repeated in all 3 normal lines (MCF-10A, L226U19 and L226TS4) at much higher concentrations (10 μM, 20 μM, 40 μM, 60 μM and 80 μM). 10 μM GSI1 was required to kill the MCF-10A cells and over 40 μM GSI1 was required to kill the two L226 cell lines. MCF-10A cells were cultured in DMEM (Invitrogen 11995-040), […] Insulin (Sigma, 11882), 20 ng/ml hEGF (Trevigen, 3443-050-01), 100 ng/ml Cholera Toxin (Sigma, C8052), 500 ng/ml Hydrocortisone (Sigma, H0888), 5% Horse Serum +100U/m1 penicillin, 0.1 mg/ml streptomycin, 2 mM L-glutamine at 37° C. in 5% CO2. L226U19 and TS4 cells were cultured in DME: F12 plus 10% FCS, 5 μg/ml insulin, 1 μg/ml Hydrocortisone, 10 ng/ml hEGF, 10 ng/ml Cholera toxin 100 U/ml penicillin, 0.1 mg/ml streptomycin, 2 mM L-glutamine at 37° C. in 5% CO2.

As for `CCCC[C@@H](C=O)NC(=O)[C@H](CC(C)C)NC(=O)[C@H](CC(C)C)NC(=O)OCc1ccccc1` [GSI1, Z-Leu-Leu-Nle-CHO] (Cbz-Leu-Leu-[Nle]-aldehyde), the “reduction in gamma-secretase activity” value in experiment [1] was “dose dependant and already significant at the dose of 750 nM”. The “apoptosis level in full cell cycle analysis” value in experiment [2] (7, 24 and 48 h post treatment, higher concentration of GSI) is given as over 25%. In addition, the cell cycle status result in experiment [2] (higher concentration of GSI) is “majority of cells were in G2/M Cell cycle arrest”. The “increase in Annexin V staining indicating apoptosis” value in experiment [2] (treated 0, 7, 24 and 48 hours) is given as “approximately 10%”. In experiment [3], the “Notch 1 protein expression” value is given as “markedly upregulated” and the “protein expression other than Notch 1 (GS components, Actin, Lamin A/C)” value is “only marginal effects on protein expression”. Besides, the effect on proliferation entry in experiment [4] (GSI1 100 nM to 10 μM) is “no effect on proliferation”. In addition, the “concentration required to kill the cells” value in experiment [4] (repeat at 10-80 μM) is 10 µM.
